Measurements published in patent US5120720A, “Preparation of lipophile:hydroxypropylcyclodextrin complexes by a method using co-solubilizers” (priority 1990, dated 1992).
Where two headings read alike, the source gives them in different places.

How the values were obtained:
[1] = read-out: Stability constant of the complex with α-cyclodextrin, cited from earlier work
[2] = read-out: Stability constant of the complex with β-cyclodextrin, cited from earlier work
[3] = β-cyclodextrin, aqueous sodium hydroxide then phosphoric acid (U.S. Pat. No. 4,883,785, Example 3); cited from earlier work
[4] = format: physicochemical
Excerpt: The methods of preparation herein disclosed were also used successfully with the ethanol-soluble peptides such as gramicidin S, complexed with hydroxypropyl-β-cyclodextrin (Example 4). It was also used to prepare the gramicidin S:hydroxypropyl-α-cyclodextrin preparation (Example 5) and gramicidin S:hydroxypropyl-γ-cyclodextrin preparation (Example 6).
The processes disclosed herein differ substantially from those described by Szejtli (p. 268) for the preparation of crystalline β-cyclodextrin:vitamin D3 complexes, which were prepared using organic solvents. In this regard, the procedure described by Szejtli consists of the co-dissolution of components, i.e., of crystalline β-cyclodextrin and vitamin D3, at 50° C. in 60-65% aqueous ethanol, followed by cooling of the clear solution during which crystalline complex of the vitamin precipitates. Moreover, attempts to use Szejtli's procedure for the above complexes were not successful, since concentration of ethanol in the range 60-65% solubilized steroids only incompletely and no precipitation occurred.

[5] = Solubility of freeze-dried complexes or residues in water, and stability of the solutions; format: physicochemical; conditions: attempted complex preparation
Description: For a number of applications, complexes in powdery form as prepared by freeze-drying (lyophilizing), are preferable to the glassy residues such as are obtained by the above discussed procedure. Therefore, to obtain complexes in a powdery form, the glassy preparations were dissolved in water (final concentration of hydroxypropyl-β-cyclodextrin was about 10% W/W), sterilized by ultrafiltration and freeze-dried. All of the following exemplary preparations of steroids so prepared, dissolved fully. Moreover, the complexes so obtained were again amorphous and could be tabletted by direct compression.
The solubility of freeze-dried complexes such as those provided below was invariably high. For example, all the complexes of steroids in Examples 1-3 dissolved smoothly in water up to 40% W/W concentration, and these solutions were stable for at least 24 hours.
[…] Full dissolution occurred in five minutes; the solution was then filtered through a membrane filter (pore size 0.22 μm). The filtrate was evaporated at room temperature in vacuo to dryness leaving a glassy residue. […] The yield was 85%.

[6] = source (a) M. Suzuki et al. 1988
[7] = source (b) Y. Matsui and K. Mochida 1979
[8] = source (d) W. Hirsch et al. 1987

Molecule | Kd [1, 6] | Kd [2, 6] | Kd [2, 7] | Kd [1, 7] | other results
CC(C)(C)CO [2,2-dimethyl-1-propanol] | 33.3 mM | 1.52 mM | 1.72 mM |  | 
N [ammonia] |  |  |  |  | Kd [1, 8]: 0.0164 mM; Kd [2, 8]: 0.0667 mM
C[C@@H]1[C@H](O)[C@@H](C)/C=C/C=C/C=C/C=C/C=C/C=C/C=C/[C@H](O[C@@H]2O[C@H](C)[C@@H](O)[C@H](N)[C@@H]2O)C[C@@H]2O[C@](O)(C[C@@H](O)C[C@@H](O)[C@H](O)CC[C@@H](O)C[C@@H](O)CC(=O)O[C@H]1C)C[C@H](O)[C@H]2C(=O)O [amphotericin B] |  |  |  |  | Starting drug solubilized [3]: about 1%
CCCCO [n-butanol] | 9.09 mM |  |  | 11.2 mM | 
CCCCCO [n-pentanol] | 3.33 mM | 11.5 mM | 15.9 mM | 3.1 mM | 
CCCO [n-propanol] | 50 mM |  |  | 43.5 mM | 
CC(C)(C)O [t-butanol] |  | 23.8 mM | 20.8 mM |  | 
OC[C@H]1O[C@@H]2O[C@H]3[C@H](O)[C@@H](O)[C@@H](O[C@H]4[C@H](O)[C@@H](O)[C@@H](O[C@H]5[C@H](O)[C@@H](O)[C@@H](O[C@H]6[C@H](O)[C@@H](O)[C@@H](O[C@H]7[C@H](O)[C@@H](O)[C@@H](O[C@H]8[C@H](O)[C@@H](O)[C@@H](O[C@H]1[C@H](O)[C@H]2O)O[C@@H]8CO)O[C@@H]7CO)O[C@@H]6CO)O[C@@H]5CO)O[C@@H]4CO)O[C@@H]3CO [β-cyclodextrin] |  |  |  |  | Solubility in 75% ethanol [4]: low solubility
gramicidin D |  |  |  |  | Dissolution in ethanol 75% ([4]; ethanol 75%): did not dissolve; Dissolution in ethanol 95% ([4]; ethanol 95%): dissolved; Solubility in water of solid residue after evaporation of ethanol 95% solution [5]: insoluble in water
